We go through 29 compounds from US9056858B2, “Indazole and pyrazolopyridine compounds as CCR1 receptor antagonists” (Boehringer Ingelheim International GmbH, priority 2009, dated 2015).

The test has as its target T1, CCR1 (Homo sapiens, UniProt P32246).
T1 construct: host or cells: Non-adherent cells
T1 sequence (P32246 1-355): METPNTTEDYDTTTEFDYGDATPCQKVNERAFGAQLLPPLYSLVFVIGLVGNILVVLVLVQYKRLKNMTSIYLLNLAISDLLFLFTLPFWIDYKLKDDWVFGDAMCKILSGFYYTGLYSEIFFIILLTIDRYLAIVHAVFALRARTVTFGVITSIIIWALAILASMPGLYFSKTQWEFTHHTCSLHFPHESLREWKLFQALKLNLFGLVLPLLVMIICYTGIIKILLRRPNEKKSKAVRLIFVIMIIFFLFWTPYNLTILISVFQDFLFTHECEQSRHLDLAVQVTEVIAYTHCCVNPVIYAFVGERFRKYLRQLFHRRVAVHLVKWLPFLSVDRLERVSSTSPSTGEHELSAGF
Put plainly: functional cellular assay measuring calcium flux in CCR1 transfected cells (block of CCR1/MIP-1α interaction). The following applies: cells stably expressing recombinant CCR1 and G-alpha-16, MIP-1alpha added at EC80. Type of test: cell-based. The procedure: Compounds are assessed for the ability to block the interaction of CCR1 and MIP-1α in a functional cellular assay measuring calcium flux in CCR1 transfected cells.
Non-adherent cells purchased from Chemicon Corporation (HTS005C), stably expressing recombinant CCR1 and G-alpha-16 are grown in RPMI 1640 medium (Mediatech 10-080-CM) supplemented with 10% FBS, 0.4 mg/mL Geneticin and penicillin/streptomycin. On the day of the assay, the cells are loaded with Calcium 4 dye (Molecular Devices R7448) with Probenecid (Invitrogen P346400) at 8E5 cells/mL for 1 hour at room temperature. After 1 hour, they are seeded in a 384-well tissue culture-treated plate at a density of 20,000 cells/well. Appropriately diluted test compound is added to the well to achieve a top concentration of 3,000 nM (diluted 4-fold with 10 doses total). The final concentration of DMSO is 1%. The buffer is HBSS (Invitrogen 14025) with 20 mM HEPES at pH 7.4. The cells incubate 30 minutes at 37 C and then 30 minutes at room temperature. The plates are transferred to the […] FDSS6000 where MIP-1alpha in 1% BSA is added at the EC80 final concentration. All plates must be read within 4 hours of the start of dye-loading. Wells +/− MIP-1alpha containing diluted DMSO instead of compound serve as the controls. Data are analyzed using Activity Base software.
Broadly, the IC50 is the concentration that gives 50% inhibition. Take `O=C(NC1(c2ccc(F)cc2)CC1)c1cncc2c1cnn2-c1ccc(F)cc1` [1-(4-Fluoro-phenyl)-1H-pyrazolo[3,4-c]pyridine-4-carboxylic acid [1-(4-fluoro-phenyl)-cyclopropyl]-amide]: the IC50 was determined as 75 nM. Consider `O=C(NC1(c2cc(I)ccn2)CC1)c1cncc2c1cnn2-c1ccc(F)cc1` [1-(4-Fluoro-phenyl)-1H-pyrazolo[3,4-c]pyridine-4-carboxylic acid [1-(4-iodo-pyridin-2-yl)-cyclopropyl]-amide], for which the IC50 is 2 nM.

Take `COc1ccc(C2(NC(=O)c3cncc4c3cnn4-c3ccc(F)cc3)CCC2)cc1` [1-(4-Fluoro-phenyl)-1H-pyrazolo[3,4-c]pyridine-4-carboxylic acid [1-(4-methoxy-phenyl)-cyclobutyl]-amide]: the IC50 was 51 nM. As for `COc1ccc(C2(NC(=O)c3cncc4c3cnn4-c3ccc(F)cc3)CC2)cc1` [1-(4-Fluoro-phenyl)-1H-pyrazolo[3,4-c]pyridine-4-carboxylic acid [1-(4-methoxy-phenyl)-cyclopropyl]-amide], the IC50 came out at 17 nM. `COc1ccnc(C2(NC(=O)c3cncc4c3cnn4-c3ccc(F)cc3)CC2)c1` [1-(4-Fluoro-phenyl)-1H-pyrazolo[3,4-c]pyridine-4-carboxylic acid [1-(4-methoxy-pyridin-2-yl)-cyclopropyl]-amide]: the IC50 came out at 31 nM. Turning to `NCc1ccc(C2(NC(=O)c3cncc4c3cnn4-c3ccc(F)cc3)CC2)nc1` [1-(4-Fluoro-phenyl)-1H-pyrazolo[3,4-c]pyridine-4-carboxylic acid [1-(5-aminomethyl-pyridin-2-yl)-cyclopropyl]-amide], the IC50 is 705 nM.

Consider `O=C(NC1(c2ccc(Br)cn2)CC1)c1cncc2c1cnn2-c1ccc(F)cc1` [1-(4-Fluoro-phenyl)-1H-pyrazolo[3,4-c]pyridine-4-carboxylic acid [1-(5-bromo-pyridin-2-yl)-cyclopropyl]-amide], for which the IC50 turned out to be 9 nM. Regarding `O=C(NC1(c2ncc(Br)cn2)CC1)c1cncc2c1cnn2-c1ccc(F)cc1` [1-(4-Fluoro-phenyl)-1H-pyrazolo[3,4-c]pyridine-4-carboxylic acid [1-(5-bromo-pyrimidin-2-yl)-cyclopropyl]-amide], the IC50 was 45 nM. Take `O=C(NC1(c2noc(C3CC3)n2)CC1)c1cncc2c1cnn2-c1ccc(F)cc1` [1-(4-Fluoro-phenyl)-1H-pyrazolo[3,4-c]pyridine-4-carboxylic acid [1-(5-cyclopropyl-1,2,4-oxadiazol-3-yl)-cyclopropyl]-amide]: the IC50 amounted to 61 nM. Regarding `CS(=O)(=O)c1ccc(C2(NC(=O)c3cncc4c3cnn4-c3ccc(F)cc3)CC2)o1` [1-(4-Fluoro-phenyl)-1H-pyrazolo[3,4-c]pyridine-4-carboxylic acid [1-(5-methanesulfonyl-furan-2-yl)-cyclopropyl]-amide], the IC50 was 4 nM.

For `CS(=O)(=O)c1cnc(C2(NC(=O)c3cncc4c3cnn4-c3ccc(F)cc3)CC2)nc1` [1-(4-Fluoro-phenyl)-1H-pyrazolo[3,4-c]pyridine-4-carboxylic acid [1-(5-methanesulfonyl-pyrimidin-2-yl)-cyclopropyl]-amide], the IC50 amounted to 14 nM. Take `O=C(NC1(c2ccc(Br)nc2)CC1)c1cncc2c1cnn2-c1ccc(F)cc1` [1-(4-Fluoro-phenyl)-1H-pyrazolo[3,4-c]pyridine-4-carboxylic acid [1-(6-bromo-pyridin-3-yl)-cyclopropyl]-amide]: the IC50 was determined as 19 nM. For the compound `CN(C)c1cccc(C2(NC(=O)c3cncc4c3cnn4-c3ccc(F)cc3)CC2)n1` [1-(4-Fluoro-phenyl)-1H-pyrazolo[3,4-c]pyridine-4-carboxylic acid [1-(6-dimethylamino-pyridin-2-yl)-cyclopropyl]-amide], the IC50 worked out at 3 nM. The figure for `CS(=O)(=O)c1ccc(C2(NC(=O)c3cncc4c3cnn4-c3ccc(F)cc3)CC2)cn1` [1-(4-Fluoro-phenyl)-1H-pyrazolo[3,4-c]pyridine-4-carboxylic acid [1-(6-methanesulfonyl-pyridin-3-yl)-cyclopropyl]-amide] is 7 nM; for `CNc1ccc(C2(NC(=O)c3cncc4c3cnn4-c3ccc(F)cc3)CC2)cn1` [1-(4-Fluoro-phenyl)-1H-pyrazolo[3,4-c]pyridine-4-carboxylic acid [1-(6-methylamino-pyridin-3-yl)-cyclopropyl]-amide] it is 28 nM; for `O=C(NC1(c2ccc(N3CCOCC3)nc2)CC1)c1cncc2c1cnn2-c1ccc(F)cc1` [1-(4-Fluoro-phenyl)-1H-pyrazolo[3,4-c]pyridine-4-carboxylic acid [1-(6-morpholin-4-yl-pyridin-3-yl)-cyclopropyl]-amide] it is 6 nM.

For `NS(=O)(=O)c1ccc(C2(NC(=O)c3cncc4c3cnn4-c3ccc(F)cc3)CC2)cn1` [1-(4-Fluoro-phenyl)-1H-pyrazolo[3,4-c]pyridine-4-carboxylic acid [1-(6-sulfamoyl-pyridin-3-yl)-cyclopropyl]-amide], the IC50 turned out to be 5 nM. Turning to `NC(=O)CNC(=O)c1cccc(C2(NC(=O)c3cncc4c3cnn4-c3ccc(F)cc3)CC2)c1` [1-(4-Fluoro-phenyl)-1H-pyrazolo[3,4-c]pyridine-4-carboxylic acid {1-[3-(carbamoylmethyl-carbamoyl)-phenyl]-cyclopropyl}-amide], the IC50 came out at 74 nM. In the case of `N#CCNC(=O)c1cccc(C2(NC(=O)c3cncc4c3cnn4-c3ccc(F)cc3)CC2)c1` [1-(4-Fluoro-phenyl)-1H-pyrazolo[3,4-c]pyridine-4-carboxylic acid {1-[3-(cyanomethyl-carbamoyl)-phenyl]-cyclopropyl}-amide], the IC50 amounted to 35 nM. With `CNC(=O)CNC(=O)c1cccc(C2(NC(=O)c3cncc4c3cnn4-c3ccc(F)cc3)CC2)c1` [1-(4-Fluoro-phenyl)-1H-pyrazolo[3,4-c]pyridine-4-carboxylic acid {1-[3-(methylcarbamoylmethyl-carbamoyl)-phenyl]-cyclopropyl}-amide], the IC50 amounted to 78 nM. As to `CC(=O)N(C)c1ccc(C2(NC(=O)c3cncc4c3cnn4-c3ccc(F)cc3)CC2)cn1` [1-(4-Fluoro-phenyl)-1H-pyrazolo[3,4-c]pyridine-4-carboxylic acid {1-[6-(acetyl-methyl-amino)-pyridin-3-yl]-cyclopropyl}-amide], the IC50 stood at 20 nM. As to `CS(=O)(=O)c1cc(C2(NC(=O)c3cc(I)cc4c3cnn4-c3ccc(F)cc3)CC2)ccn1` [1-(4-Fluoro-phenyl)-6-iodo-1H-indazole-4-carboxylic acid [1-(2-methanesulfonyl-pyridin-4-yl)-cyclopropyl]-amide], the IC50 was determined as 13 nM. In the case of `CS(=O)(=O)c1cc(C(=O)NC2(c3ccnc(S(C)(=O)=O)c3)CC2)c2cnn(-c3ccc(F)cc3)c2c1` [1-(4-Fluoro-phenyl)-6-methanesulfonyl-1H-indazole-4-carboxylic acid [1-(2-methanesulfonyl-pyridin-4-yl)-cyclopropyl]-amide] it was 7 nM; in that of `COC(=O)C1(NC(=O)c2cccc(C3(NC(=O)c4cncc5c4cnn5-c4ccc(F)cc4)CC3)c2)CC1` [1-[3-(1-{[1-(4-Fluoro-phenyl)-1H-pyrazolo[3,4-c]pyridine-4-carbonyl]-amino}-cyclopropyl)-benzoylamino]-cyclopropanecarboxylic acid methyl ester], 98 nM.

As to `COC(=O)c1cccc(C2(NC(=O)c3cncc4c3cnn4-c3ccc(F)cc3)CC2)c1` [3-(1-{[1-(4-Fluoro-phenyl)-1H-pyrazolo[3,4-c]pyridine-4-carbonyl]-amino}-cyclopropyl)-benzoic acid methyl ester], the IC50 turned out to be 11 nM. Regarding `O=C(O)c1cccc(C2(NC(=O)c3cncc4c3cnn4-c3ccc(F)cc3)CC2)c1` [3-(1-{[1-(4-Fluoro-phenyl)-1H-pyrazolo[3,4-c]pyridine-4-carbonyl]-amino}-cyclopropyl)-benzoic acid], the IC50 was 27 nM. On to `COC(=O)CCS(=O)(=O)c1cccc(C2(NC(=O)c3cncc4c3cnn4-c3ccc(F)cc3)CC2)c1` [3-[3-(1-{[1-(4-Fluoro-phenyl)-1H-pyrazolo[3,4-c]pyridine-4-carbonyl]-amino}-cyclopropyl)-benzenesulfonyl]-propionic acid methyl ester], for which the IC50 worked out at 17 nM. Take `COC(=O)CCS(=O)(=O)c1ccc(C2(NC(=O)c3cncc4c3cnn4-c3ccc(F)cc3)CC2)cn1` [3-[5-(1-{[1-(4-Fluoro-phenyl)-1H-pyrazolo[3,4-c]pyridine-4-carbonyl]-amino}-cyclopropyl)-pyridine-2-sulfonyl]-propionic acid methyl ester]: the IC50 stood at 10 nM. For the compound `O=C(O)c1ccc(C2(NC(=O)c3cncc4c3cnn4-c3ccc(F)cc3)CC2)cc1` [4-(1-{[1-(4-Fluoro-phenyl)-1H-pyrazolo[3,4-c]pyridine-4-carbonyl]-amino}-cyclopropyl)-benzoic acid], the half-inhibitory concentration (IC50) is 69 nM.
